Laboratory results: US11931345B2, “Thiazolidinedione analogs for the treatment of NAFLD and metabolic diseases” (Cirius Therapeutics, Inc., priority 2018, dated 2024)

Columns and labels:
[1] = test system: diet-induced obese (60% HF diet) WT (fl/fl) and LS-MPC2-/- mice; assay: Intraperitoneal glucose tolerance test and plasma insulin in diet-induced obese WT and LS-MPC2-/- mice after a single dose; assay type: in vivo, mouse; conditions: for glucose tolerance (GTT): 20 h after a single dose of 30 mg/kg; for plasma insulin: single dose 30 mg/kg
Procedure: (§1) 8 week old WT and LS-MPC2−/− mice were fed a diet of 60% fat (Research Diets D12492) for 20 weeks to induce obesity and insulin resistance. Intraperitoneal glucose tolerance tests (GTT) were performed after a 4 h fast by injection of 1 g/kg D-glucose in saline i.p. to assess glucose tolerance. 3 days after the initial GTT, mice were randomized to receive a single gavage of either vehicle (1% CMC, 0.01% Tween-80) or 30 mg/kg MSDC-0602K. Plasma insulin was measured by Singulex assay and plasma ALT levels were measured by commercially-available kits (Teco Diagnostics). qPCR was performed by isolation of total RNA with RNA-Bee and reverse transcription with a high-capacity cDNA synthesis kit (Invitrogen). qPCR was performed on an Applied Biosystems real-time thermocycler.

[2] = test system: diet-induced obese (60% HF diet) WT (fl/fl) and LS-MPC2-/- mice; assay: Markers of liver injury (plasma ALT, qPCR gene expression) in obese WT and LS-MPC2-/- mice after a single dose; assay type: in vivo, mouse
Procedure: as §1

[3] = test system: uncoupling protein 1 (UCP1); assay: UCP1 expression (Western blot) in brown adipose precursors in vitro, with T3; assay type: cell-based; conditions: added to T3 0 to 30 nM; sensitivity and magnitude of response; FIG. 14
Text: FIG. 14. Is a graphic representation of the data of thyroid hormone with MSDC-0602 in vitro.
The addition of the thyroid agonist not only increases the maximum response. […] The response measured here is increased expression of the uncoupling protein 1 (UCP1) on Western blot—a measure of differentiation of brown adipose cells.

[4] = test system: ZDSD/Pco rats challenged with a high fat diet; assay: ZDSD/Pco rats on high fat diet: circulating glucose, insulin, OGTT; assay type: in vivo, rat; conditions: over 4 week treatment, compared to group 2 (control treatment on high fat diet); oral MSDC-0602 30 mg/kg, exenatide s.q. 1 μg
Procedure: (§2) Male ZDSD/Pco rats were maintained on standard chow 5008 (Purina) until treatment groups were switched to the high fat diet (Purina 5SCA). […] Control rats (given both vehicles) were maintained on the normal diet and the treatment groups were switched to the high fat diet as indicated. Glucose and insulin were measured weekly from tail vein samples. On day 36 an oral glucose tolerance test (OGTT); 2 g/kg) was conducted after a 16 hour fast. Glucose samples were taken at 0, 30, 60, 90, and 120 minutes; insulin was measured at 0 and 30 minutes and the change at 30 minutes is shown. Data are mean and SE; N=10. At sacrifice, the pancreas was fixed in formalin and shipped to MSU for histology and IHC. A range of anti-bodies were used to identify and quantify the presence of insulin, Ki67, collagen, CD3 lymphocytes, PDX-1 and Bcl2. An Image-Pro system was used with Image J to quantify the degree of positive staining. […] Five matched groups of ZDSD/Pco rats were selected at 14 weeks of age and then treated for 6 weeks. […] At sacrifice, the pancreas was removed, fixed, and stained for insulin, PDX1, and Ki67, as an index of proliferation.

pancreatic islets = assay: Pancreas histology and IHC of ZDSD/Pco rats (insulin, Ki67, PDX-1, Bcl2); assay type: in vivo, rat; conditions: pancreas at sacrifice; high fat diet; oral MSDC-0602 30 mg/kg, exenatide s.q. 1 μg
Procedure: as §2

serum miRNAs = assay: Serum miRNA sequencing in NASH (HTF-C) diet mice; assay type: in vivo, mouse
Procedure: To begin evaluating the exosome cargo of MSDC-0602K-treated mice, WT mice were fed with either a low fat (LF) control diet (Research Diets D09100304) or high trans-fat, fructose, cholesterol (HTF-C) diet composed of 40% trans-fat, 20% fructose, 2% cholesterol (Research Diets D09100301).
Total RNA was isolated from 400 μL of serum and small RNA sequencing was performed by adapter ligation, cDNA synthesis and size selection of 145-160 base pairs. Sequencing was then performed on an Illumina HiSeq3000.

[5] = phase 2 clinical trial, cited from earlier work
mouse model of NASH = conditions: effects require MPC expression in hepatocytes; cited from earlier work
[6] = molecular target: T1, mitochondrial pyruvate carrier (MPC) (Homo sapiens, UniProt O95563+Q9Y5U8); conditions: cited from earlier work
T1 sequence (Q9Y5U8 1-109): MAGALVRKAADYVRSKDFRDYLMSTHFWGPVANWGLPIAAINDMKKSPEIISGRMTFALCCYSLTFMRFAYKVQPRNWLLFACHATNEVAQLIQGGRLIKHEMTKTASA
T1 sequence (O95563 1-127): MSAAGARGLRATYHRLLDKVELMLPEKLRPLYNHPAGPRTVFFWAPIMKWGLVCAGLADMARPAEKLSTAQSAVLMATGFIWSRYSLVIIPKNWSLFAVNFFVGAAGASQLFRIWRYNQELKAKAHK

Structure (SMILES)	glucose tolerance (GTT) ([1]; WT mice)	liver injury, major acute effects ([2]; acute dosing, effects require hepatocyte MPC)	increase of UCP1 expression, interaction with thyroid hormone [3]	glucose levels [4]	insulin staining (pancreatic islets)	number of islet cells (pancreatic islets)	glucose tolerance (GTT) ([1]; LS-MPC2-/- mice)	plasma insulin ([1]; LS-MPC2-/- mice)	plasma insulin ([1]; WT mice)	plasma ALT and liver injury gene expression, response to acute treatment ([2]; LS-MPC2-/- mice, single dose)	plasma ALT concentrations ([2]; WT mice, single dose, FIG. 11A)	gene expression for hepatic stellate cell activation and fibrotic scar formation ([2]; WT mice, single dose, FIG. 11B)	serum miRNAs altered in NASH model (serum miRNAs; HTF-C diet containing 331 ppm MSDC-0602, heat map of ~230 miRNAs)	serum miRNAs upregulated in NASH (mmu-miR-29c-3p, mmu-miR-802-3p, mmu-miR-802-5p) (serum miRNAs; HTF-C diet, FIGS. 13A-13C)	serum miRNAs down in NASH (mmu-miR-127-3p, mmu-miR-129-2-3p, mmu-miR-615-3p) (serum miRNAs; HTF-C diet, FIGS. 13D-13F)	serum miRNAs mmu-miR-129-5p, mmu-miR-205-5p (serum miRNAs; HTF-C diet, FIGS. 13G-13H)	circulating glucose ([5]; FIG. 1A)	circulating insulin ([5]; FIG. 1B)	liver damage (mouse model of NASH)	MPC binding and modulation [6]
COc1cccc(C(=O)COc2ccc(CC3SC(=O)[N-]C3=O)cc2)c1.[K+] (stereo not shown) [MSDC-0602K]	improves glucose tolerance	attenuate liver injury	synergistic	–	–	–	–	–	–	–	–	–	–	–	–	–	–	–	–	–
COc1cccc(C(=O)COc2ccc(CC3SC(=O)NC3=O)cc2)c1 (stereo not shown) [MSDC-0602]	improved glucose tolerance	–	synergy (much larger response)	significantly reduced	increased	increased	no improvement in glucose tolerance	decreased	decreased	refractory	decreased	decreased	largely corrected	down	up	large effect	lowered	lowered	prevents and reverse liver damage	binds and modulates
